Laboratory results as given in patent US10519152B2, “Compounds and their use in treating cancer” (AstraZeneca AB, priority 2017, dated 2019).

These molecules were tested against T1, recombinant human Estrogen Receptor alpha ligand binding domain, residues 307-554 (ER alpha-LBD (GST)) (Homo sapiens, UniProt P03372) (assay: ERα binding assay (LanthaScreen TR-FRET competition)). Conditions: TR-FRET competition with Fluormone ES2 tracer, 4 hours at room temperature; single experiment or average of two or more.
T1 construct: made in house
T1 sequence (P03372 307-554): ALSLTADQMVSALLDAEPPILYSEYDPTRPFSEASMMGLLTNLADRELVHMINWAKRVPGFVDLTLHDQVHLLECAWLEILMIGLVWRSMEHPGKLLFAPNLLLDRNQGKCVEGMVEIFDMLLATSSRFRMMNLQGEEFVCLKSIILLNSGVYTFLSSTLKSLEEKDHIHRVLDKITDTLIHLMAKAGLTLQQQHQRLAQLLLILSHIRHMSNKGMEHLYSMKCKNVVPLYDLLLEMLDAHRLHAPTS

Row | Compound | IC50 [nM]
1 | Cc1ncsc1-c1ccc(CNC(=O)[C@@H]2C[C@@H](O)CN2C(=O)[C@@H](NC(=O)COCc2cccc(COc3cc(F)c([C@@H]4c5[nH]c6ccccc6c5C[C@@H](C)N4CC(C)(C)F)c(F)c3)n2)C(C)(C)C)cc1 [Example 132, (2S,4R)-1-((S)-2-(2-((6-((3,5-Difluoro-4-((1R,3R)-2-(2-fluoro-2-methylpropyl)-3-methyl-2,3,4,9-tetrahydro-1H-pyrido[3,4-b]indol-1-yl)phenoxy)methyl)pyridin-2-yl)methoxy)acetamido)-3,3-dimethylbutanoyl)-4-hydroxy-N-(4-(4-methylthiazol-5-yl)benzyl)pyrrolidine-2-carboxamide] | 0.5
2 | Cc1ncsc1-c1ccc([C@H](C)NC(=O)[C@@H]2C[C@@H](O)CN2C(=O)[C@@H](NC(=O)COCCc2ccc(COc3cc(F)c([C@@H]4c5[nH]c6ccccc6c5C[C@@H](C)N4CC(C)(C)F)c(F)c3)nc2)C(C)(C)C)cc1 [Example 159, (2S,4R)-1-((S)-2-(2-(2-(6-((3,5-Difluoro-4-((1R,3R)-2-(2-fluoro-2-methylpropyl)-3-methyl-2,3,4,9-tetrahydro-1H-pyrido[3,4-b]indol-1-yl)phenoxy)methyl)pyridin-3-yl)ethoxy)acetamido)-3,3-dimethylbutanoyl)-4-hydroxy-N—((S)-1-(4-(4-methylthiazol-5-yl)phenyl)ethyl)pyrrolidine-2-carboxamide] | 0.7
3 | Cc1ncsc1-c1ccc(CNC(=O)[C@@H]2C[C@@H](O)CN2C(=O)[C@@H](NC(=O)COCCCCC(=O)NCCOc2cc(F)c([C@@H]3c4[nH]c5ccccc5c4C[C@@H](C)N3CC(C)(C)F)c(F)c2)C(C)(C)C)cc1 [Example 142, (2S,4R)-1-((S)-2-(2-((5-((2-(3,5-Difluoro-4-((1R,3R)-2-(2-fluoro-2-methylpropyl)-3-methyl-2,3,4,9-tetrahydro-1H-pyrido[3,4-b]indol-1-yl)phenoxy)ethyl)amino)-5-oxopentyl)oxy)acetamido)-3,3-dimethylbutanoyl)-4-hydroxy-N-(4-(4-methylthiazol-5-yl)benzyl)pyrrolidine-2-carboxamide] | 1.1
4 | Cc1ncsc1-c1ccc(CNC(=O)[C@@H]2C[C@@H](O)CN2C(=O)[C@@H](NC(=O)COCCCCCOCCOc2cc(F)c([C@@H]3c4[nH]c5ccccc5c4C[C@@H](C)N3CC(C)(C)F)c(F)c2)C(C)(C)C)cc1 [Example 9, (2S,4R)-1-((S)-2-(2-((5-(2-(3,5-Difluoro-4-((1R,3R)-2-(2-fluoro-2-methylpropyl)-3-methyl-2,3,4,9-tetrahydro-1H-pyrido[3,4-b]indol-1-yl)phenoxy)ethoxy)pentyl)oxy)acetamido)-3,3-dimethylbutanoyl)-4-hydroxy-N-(4-(4-methylthiazol-5-yl)benzyl)pyrrolidine-2-carboxamide] | 0.8
5 | Cc1ncsc1-c1ccc(CNC(=O)[C@@H]2C[C@@H](O)CN2C(=O)[C@@H](NC(=O)COCCOCCCCCOc2cc(F)c([C@@H]3c4[nH]c5ccccc5c4C[C@@H](C)N3CC(F)(F)F)c(F)c2)C(C)(C)C)cc1 [Example 139, (2S,4R)-1-((S)-2-(2-(2-((5-(3,5-Difluoro-4-((1R,3R)-3-methyl-2-(2,2,2-trifluoroethyl)-2,3,4,9-tetrahydro-1H-pyrido[3,4-b]indol-1-yl)phenoxy)pentyl)oxy)ethoxy)acetamido)-3,3-dimethylbutanoyl)-4-hydroxy-N-(4-(4-methylthiazol-5-yl)benzyl)pyrrolidine-2-carboxamide] | 0.5
6 | Cc1ncsc1-c1ccc([C@@H](CN)NC(=O)[C@@H]2C[C@@H](O)CN2C(=O)[C@@H](NC(=O)COCCOCCOCCOc2cc(F)c([C@@H]3c4[nH]c5ccccc5c4C[C@@H](C)N3CC(C)(C)F)c(F)c2)C(C)(C)C)cc1 [Example 106, (2S,4R)—N-[(1S)-2-amino-1-[4-(4-methylthiazol-5-yl)phenyl]ethyl]-1-[(2S)-2-[[2-[2-[2-[2-[3,5-difluoro-4-[(1R,3R)-2-(2-fluoro-2-methyl-propyl)-3-methyl-1,3,4,9-tetrahydropyrido[3,4-b]indol-1-yl]phenoxy]ethoxy]ethoxy]ethoxy]acetyl]amino]-3,3-dimethyl-butanoyl]-4-hydroxy-pyrrolidine-2-carboxamide] | 0.8
7 | Cc1ncsc1-c1ccc(CNC(=O)[C@@H]2C[C@@H](O)CN2C(=O)[C@@H](NC(=O)CNCCCCCCCCOc2cc(F)c([C@@H]3c4[nH]c5ccccc5c4C[C@@H](C)N3CC(C)(C)F)c(F)c2)C(C)(C)C)cc1 [Example 147, (2S,4R)-1-((S)-2-(2-((8-(3,5-Difluoro-4-((1R,3R)-2-(2-fluoro-2-methylpropyl)-3-methyl-2,3,4,9-tetrahydro-1H-pyrido[3,4-b]indol-1-yl)phenoxy)octyl)amino)acetamido)-3,3-dimethylbutanoyl)-4-hydroxy-N-(4-(4-methylthiazol-5-yl)benzyl)pyrrolidine-2-carboxamide] | 1
8 | Cc1ncsc1-c1ccc(CNC(=O)[C@@H]2C[C@@H](O)CN2C(=O)[C@@H](NC(=O)COCc2ccc(C(=O)Nc3cc(F)c([C@@H]4c5[nH]c6ccccc6c5C[C@@H](C)N4CC(C)(C)F)c(F)c3)nc2)C(C)(C)C)cc1 [Example 144, N-(3,5-Difluoro-4-((1R,3R)-2-(2-fluoro-2-methylpropyl)-3-methyl-2,3,4,9-tetrahydro-1H-pyrido[3,4-b]indol-1-yl)phenyl)-5-((2-(((S)-1-((2S,4R)-4-hydroxy-2-((4-(4-methylthiazol-5-yl)benzyl)carbamoyl)pyrrolidin-1-yl)-3,3-dimethyl-1-oxobutan-2-yl)amino)-2-oxoethoxy)methyl)picolinamide] | 1.3
9 | Cc1ncsc1-c1ccc(CNC(=O)[C@@H]2C[C@@H](O)CN2C(=O)[C@@H](NC(=O)COCCCCCCOc2cc(F)c([C@@H]3c4[nH]c5ccccc5c4C[C@@H](C)N3CC(C)(C)F)c(F)c2)C(C)(C)C)cc1 [Example 51, (2S,4R)-1-((S)-2-(2-((6-(3,5-difluoro-4-((1R,3R)-2-(2-fluoro-2-methylpropyl)-3-methyl-2,3,4,9-tetrahydro-1H-pyrido[3,4-b]indol-1-yl)phenoxy)hexyl)oxy)acetamido)-3,3-dimethylbutanoyl)-4-hydroxy-N-(4-(4-methylthiazol-5-yl)benzyl)pyrrolidine-2-carboxamide] | 2
10 | Cc1ncsc1-c1ccc(CNC(=O)[C@@H]2C[C@@H](O)CN2C(=O)[C@@H](NC(=O)COCCCCCOc2cc(F)c([C@@H]3c4[nH]c5ccccc5c4C[C@@H](C)N3CC(C)(C)F)c(F)c2)C(C)(C)C)cc1 [Example 18, (2S,4R)-1-((S)-2-(2-((5-(3,5-Difluoro-4-((1R,3R)-2-(2-fluoro-2-methylpropyl)-3-methyl-2,3,4,9-tetrahydro-1H-pyrido[3,4-b]indol-1-yl)phenoxy)pentyl)oxy)acetamido)-3,3-dimethylbutanoyl)-4-hydroxy-N-(4-(4-methylthiazol-5-yl)benzyl)pyrrolidine-2-carboxamide] | 0.6
11 | Cc1ncsc1-c1ccc(CNC(=O)[C@@H]2C[C@@H](O)CN2C(=O)[C@@H](NC(=O)C(F)(F)OCCCOCCCOc2cc(F)c([C@@H]3c4[nH]c5ccccc5c4C[C@@H](C)N3CC(C)(C)F)c(F)c2)C(C)(C)C)cc1 [Example 119, (2S,4R)-1-((S)-2-(2-(3-(3-(3,5-Difluoro-4-((1R,3R)-2-(2-fluoro-2-methylpropyl)-3-methyl-2,3,4,9-tetrahydro-1H-pyrido[3,4-b]indol-1-yl)phenoxy)propoxy)propoxy)-2,2-difluoroacetamido)-3,3-dimethylbutanoyl)-4-hydroxy-N-(4-(4-methylthiazol-5-yl)benzyl)pyrrolidine-2-carboxamide] | 0.8
12 | Cc1ncsc1-c1ccc(CNC(=O)[C@@H]2C[C@@H](O)CN2C(=O)[C@@H](NC(=O)CCCOc2cccc(COc3cc(F)c([C@@H]4c5[nH]c6ccccc6c5C[C@@H](C)N4CC(C)(C)F)c(F)c3)n2)C(C)(C)C)cc1 [Example 162, (2S,4R)-1-((S)-2-(4-((6-((3,5-Difluoro-4-((1R,3R)-2-(2-fluoro-2-methylpropyl)-3-methyl-2,3,4,9-tetrahydro-1H-pyrido[3,4-b]indol-1-yl)phenoxy)methyl)pyridin-2-yl)oxy)butanamido)-3,3-dimethylbutanoyl)-4-hydroxy-N-(4-(4-methylthiazol-5-yl)benzyl)pyrrolidine-2-carboxamide] | 1.1
13 | Cc1ncsc1-c1ccc(CNC(=O)[C@@H]2C[C@@H](OC(=O)[C@@H]3CCCN3)CN2C(=O)[C@@H](NC(=O)CCCCCCCCCCOc2cc(F)c([C@@H]3c4[nH]c5ccccc5c4C[C@@H](C)N3CC(C)(C)F)c(F)c2)C(C)(C)C)cc1 [Example 33, (3R,5S)-1-((S)-2-(11-(3,5-Difluoro-4-((1R,3R)-2-(2-fluoro-2-methylpropyl)-3-methyl-2,3,4,9-tetrahydro-1H-pyrido[3,4-b]indol-1-yl)phenoxy)undecanamido)-3,3-dimethylbutanoyl)-5-((4-(4-methylthiazol-5-yl)benzyl)carbamoyl)pyrrolidin-3-yl L-prolinate] | 8.9
14 | Cc1ncsc1-c1ccc(CNC(=O)[C@@H]2C[C@@H](O)CN2C(=O)[C@@H](NC(=O)COCCOCCOCCOc2cc(F)c([C@@H]3c4[nH]c5ccccc5c4C[C@@H](C)N3C[C@H](C)CO)c(F)c2)C(C)(C)C)cc1 [Example 101, (2S,4R)-1-((S)-2-(tert-butyl)-14-(3,5-difluoro-4-((1R,3R)-2-((S)-3-hydroxy-2-methylpropyl)-3-methyl-2,3,4,9-tetrahydro-1H-pyrido[3,4-b]indol-1-yl)phenoxy)-4-oxo-6,9,12-trioxa-3-azatetradecanoyl)-4-hydroxy-N-(4-(4-methylthiazol-5-yl)benzyl)pyrrolidine-2-carboxamide] | 3.3
